Values of other authors as cited in patent US20230107398A1, “IMMEDIATE RELEASE FORMULATIONS OF d-LYSERGIC ACID DI[…] THERAPEUTIC APPLICATIONS” (Mind Medicine, Inc., priority 2021, published 2023).

Conditions: room temperature

SMILES: CCN(CC)C(=O)[C@@H]1C=C2c3cccc4[nH]cc(c34)C[C@H]2N(C)C1 [LSD, 9,10-didehydro-N,N-diethyl-6-methylergoline-8β-carboxamide]
- Stability in oral solution: not stable
